Molecules are shown by their SMILES.

By CC50 is commonly meant the concentration giving 50% cytotoxicity. High values mean lower toxicity to the cells, low ones greater toxicity to the cells.

In this test the test system is HCT116 MTAP-deleted cell lines. In words: Cell viability assay for HCT116 isogenic pair (CellTitre-Glo, 7 days). The settings on record: Homo sapiens, HCT-116, 168 h, 7 days of treatment, cell line not given. Type of test: cell-based. The procedure: Control compounds were analyzed in parallel each time for quality control.
In Brief, on Day −1, a serial dilution of stock compounds in DMSO was performed using BioMek liquid handlers and dispensed using Echo acoustic dispenser into 384 well plates. Both tool compounds and sample compounds were spotted in the same plate for a dose response of PRMT5 inhibitors. Compound plates were stored as frozen until the cells were ready for seeding.
On Day 0, 100 HCT WT or HCT116 MTAP-deleted cells were seeded in compound-containing 384 well plates (50 μl per well) in RPMI 1640 media supplemented with 10% heat inactivated fetal bovine serum, Glutamax and penicillin streptomycin using EL460 liquid dispenser 5 μl cassette (BioTek, part no. 7170011). After equilibrating the plate in room temperature, the cells were incubated for 7 days inside the sealed incubator set at 37° C. with 90% humidity and 5% CO2.
On Day 7, the viability of cells was measured using a CTG assay kit (CellTitre-Glo; Promega cat no. G7573). Shortly, 40 μl per well of luminescent cell viability assay reagent were dispensed using EL460 liquid dispenser 5 μl cassette. CTG luminescence signal was measured using an EnVision plate reader (PerkinElmer) in accordance with manufacturer's instruction. The CCso values for each compound after 7 days of treatment were calculated using 4 parameter non-linear logistical curve fit.
For the cell viability assay ie CC50 shown in nM in Table 3.
`Cn1ncc2c(N)nc3cnc(C(=O)N4CCO[C@@H]5Cc6cc(Br)ccc6[C@@H]54)cc3c21` [Example Ca-33, (4-amino-1-methyl-1H-pyrazolo[4,3-c][1,7]naphthyridin-8-yl)((4aS,9aR)-7-bromo-2,3,9,9a-tetrahydroindeno[2,1-b][1,4]oxazin-4(4aH)-yl)methanone] yielded a cytotoxic concentration (CC50) of 0.009 µM. In other words, the single-digit nanomolar range.
The same measure for `Cn1ncc2c(N)nc3cnc(C(=O)N4CC[C@@H]5C[C@H]4c4ccc(OC(F)F)cc45)cc3c21` [Example Ca-16, (4-amino-1-methyl-1H-pyrazolo[4,3-c][1,7]naphthyridin-8-yl)((1S,5R)-7-(difluoromethoxy)-1,3,4,5-tetrahydro-2H-1,5-methanobenzo[c]azepin-2-yl)methanone]: 0.091 µM; for `CN(C(=O)c1cc2c(cn1)nc(N)c1cnn(C)c12)[C@H]1c2ccc(C(F)(F)F)cc2[C@@H]2C[C@@H]21` (single isomer, unassigned) [Example Ca-25]: 0.043 µM.
With `C[C@H]1CN(C(=O)c2cc3c4c(c(N)nc3cn2)COC4)[C@H]2c3ccc(C(F)(F)F)cc3C[C@H]2O1` [Example Cb-1, (4-amino-1,3-dihydrofuro[3,4-c][1,7]naphthyridin-8-yl)((2S,4aS,9aR)-2-methyl-7-(trifluoromethyl)-2,3,9,9a-tetrahydroindeno[2,1-b][1,4]oxazin-4(4aH)-yl)methanone] the figure was 0.071 µM.
The same measure for `Cn1ncc2c(N)nc3cnc(C(=O)N4CC[C@H]5C[C@@H]4c4ccc(OC(F)F)cc45)cc3c21` [Example Ca-15, (4-amino-1-methyl-1H-pyrazolo[4,3-c][1,7]naphthyridin-8-yl)((1R,5S)-7-(difluoromethoxy)-1,3,4,5-tetrahydro-2H-1,5-methanobenzo[c]azepin-2-yl)methanone]: 0.01 µM; for `Cn1ncc2c3cc(C(=O)N4CCC[C@@H]5Oc6cc(C(F)(F)F)cc(F)c6[C@@H]54)ncc3nc(N)c21` [Example Ca-52, (4-amino-3-methyl-3H-pyrazolo[3,4-c][1,7]naphthyridin-8-yl)((4aS,9bS)-9-fluoro-7-(trifluoromethyl)-3,4,4a,9b-tetrahydrobenzofuro[3,2-b]pyridin-1(2H)-yl)methanone]: 0.048 µM; for `C[C@@H]1CC[C@@H]2Oc3cc(OC(F)(F)F)ccc3[C@@H]2N1C(=O)c1cc2c(cn1)nc(N)c1cnn(C)c12` (racemic) [Example Ca-41, (Rac)-(4-amino-1-methyl-1H-pyrazolo[4,3-c][1,7]naphthyridin-8-yl)((2R,4aS,9bS)-2-methyl-7-(trifluoromethoxy)-3,4,4a,9b-tetrahydrobenzofuro[3,2-b]pyridin-1(2H)-yl)methanone]: 0.03 µM.
In turn, `CN(C(=O)c1cc2c(cn1)nc(N)c1cnn(C)c12)[C@@H]1c2ccc(C(F)(F)F)cc2[C@H]2C[C@H]21` (single isomer, unassigned) [Example Ca-27] came in with a cytotoxic concentration (CC50) of 0.088 µM.
Consider `C[C@H]1CN(C(=O)c2cc3c(cn2)nc(N)c2cnn(C)c23)[C@H]2c3ccc(C(F)(F)F)cc3C[C@H]2O1` [Example Ca-13, (4-amino-1-methyl-1H-pyrazolo[4,3-c][1,7]naphthyridin-8-yl)((2S,4aS,9aR)-2-methyl-7-(trifluoromethyl)-2,3,9,9a-tetrahydroindeno[2,1-b][1,4]oxazin-4(4aH)-yl)methanone], for which the half-maximal cytotoxic concentration (CC50) amounted to 0.017 µM. This CC50 is about 5.2-fold lower than that of the molecule before.
The same measure for `Cn1ncc2c(N)nc3cnc(C(=O)N4CCC[C@@H]5Oc6cc(C(F)(F)F)ccc6[C@@H]54)cc3c21` [Example Ca-19, (4-amino-1-methyl-1H-pyrazolo[4,3-c][1,7]naphthyridin-8-yl)((4aS,9bS)-7-(trifluoromethyl)-3,4,4a,9b-tetrahydrobenzofuro[3,2-b]pyridin-1(2H)-yl)methanone]: 0.006 µM; for `Cn1ncc2c(N)nc3cnc(C(=O)N4CCC5CC4c4ccc(C(F)(F)F)cc45)cc3c21` (racemic) [Example Ca-14, (Rac)-(4-amino-1-methyl-1H-pyrazolo[4,3-c][1,7]naphthyridin-8-yl)((1R,5S)-7-(trifluoromethyl)-1,3,4,5-tetrahydro-2H-1,5-methanobenzo[c]azepin-2-yl)methanone]: 0.016 µM; for `Cn1ncc2c(N)nc3cnc(C(=O)N4CC[C@H]5C[C@@H]4c4ccc(Cl)c(F)c45)cc3c21` [Example Ca-42, (4-amino-1-methyl-1H-pyrazolo[4,3-c][1,7]naphthyridin-8-yl)((1R,5S)-7-chloro-6-fluoro-1,3,4,5-tetrahydro-2H-1,5-methanobenzo[c]azepin-2-yl)methanone]: 0.025 µM.
Take `Cn1ncc2c(N)nc3cnc(C(=O)N4CCC[C@@H]5Oc6c(ccc(OC(F)(F)F)c6F)[C@@H]54)cc3c21` [Example Ca-7, (4-amino-1-methyl-1H-pyrazolo[4,3-c][1,7]naphthyridin-8-yl)((4aS,9bS)-6-fluoro-7-(trifluoromethoxy)-3,4,4a,9b-tetrahydrobenzofuro[3,2-b]pyridin-1(2H)-yl)methanone]: the half-maximal cytotoxic concentration (CC50) stood at 0.013 µM.
The same measure for `Cn1ncc2c(N)nc3ccc(C(=O)N4CCCC5OCc6cc(C(F)(F)F)ccc6C54)cc3c21` (centres unmarked) [Example Ca-9, (4-amino-1-methyl-1H-pyrazolo[4,3-c]quinolin-8-yl)(8-(trifluoromethyl)-2,3,4,4a,6,10b-hexahydro-1H-isochromeno[4,3-b]pyridin-1-yl)methanone]: 0.056 µM.
In turn, `Cn1ncc2c(N)nc3cnc(C(=O)N4CCC[C@@H]5Oc6cc(OC(F)F)c(F)cc6[C@@H]54)cc3c21` (racemic) [Example Ca-21, (Rac)-(4-amino-1-methyl-11H-pyrazolo[4,3-c][1,7]naphthyridin-8-yl)(7-(difluoromethoxy)-8-fluoro-3,4,4a,9b-tetrahydrobenzofuro[3,2-b]pyridin-1(2H)-yl)methanone] showed a CC50 of 0.015 µM.
The same measure for `Cn1ncc2c(N)nc3cnc(C(=O)N4CCO[C@@H]5Cc6cc(Cl)ccc6[C@@H]54)cc3c21` [Example Ca-35, (4-amino-1-methyl-1H-pyrazolo[4,3-c][1,7]naphthyridin-8-yl)((4aS,9aR)-7-chloro-2,3,9,9a-tetrahydroindeno[2,1-b][1,4]oxazin-4(4aH)-yl)methanone]: 0.036 µM.
With `C[C@H]1CN(C(=O)c2cc3c(cn2)nc(N)c2cnn(C)c23)[C@H]2c3ccc(Br)c(F)c3C[C@H]2O1` (single isomer, unassigned) [Example Ca-31], the CC50 is 0.032 µM.
In the case of `CN(C(=O)c1cc2c(cn1)nc(N)c1cnn(C)c12)[C@@H]1c2ccc(C(F)(F)F)cc2[C@@H]2C[C@H]12` (single isomer, unassigned) [Example Ca-28], the 50% cytotoxic concentration (CC50) turned out to be 1.29 µM.
With `Cn1ncc2c(N)nc3ccc(C(=O)N4CCO[C@@H]5Cc6cc(Br)ccc6[C@@H]54)cc3c21` (racemic) [Example Ca-12, (Rac)-(4-amino-1-methyl-1H-pyrazolo[4,3-c]quinolin-8-yl)(7-bromo-2,3,9,9a-tetrahydroindeno[2,1-b][1,4]oxazin-4(4aH)-yl)methanone] the figure was 0.053 µM; with `COc1ccc2c(c1)CO[C@H]1CCCN(C(=O)c3ccc4nc(N)c5cnn(C)c5c4c3)[C@@H]21` (racemic) [Example Ca-8, Rac-(4-amino-1-methyl-1H-pyrazolo[4,3-c]quinolin-8-yl)((4aS,10bS)-8-methoxy-2,3,4,4a,6,10b-hexahydro-1H-isochromeno[4,3-b]pyridin-1-yl)methanone], 0.023 µM.

These data come from patent publication US20250154172A1, “PRMT5 INHIBITORS AND USES THEREOF” (Gilead Sciences, Inc., priority 2023, published 2025).
